The target in the assay is MAP4K-1 enzyme (Homo sapiens, UniProt Q92918). Description: FRET one step binding assay (tracer displacement). The following applies: for inhibition at 1 µM: 1 μM compound; for inhibition at 10 µM: 10 μM compound. The procedure:
This is a one step binding assay based on the binding and displacement of the labeled tracer, where compound addition is followed by addition of the anti-GST tagged europium (Eu) as the donor and Alexa Fluor-labeled tracer as the acceptor.
Test compounds were dissolved in dimethylsulfoxide (DMSO) to prepare 10.0 mM stock solutions and diluted to the desired concentration. The final concentration of DMSO in the reaction was 3% (v/v). The assay mixture was prepared by mixing 2 nM of the Eu-Anti-GST Antibody and 5 nM MAP4K-1 enzyme in the Kinase buffer containing 50 mM HEPES (pH 7.5), 10 mM MgCl2, 1 mM EGTA, 0.01% Brij-35 with or without the desired concentration of the compound. The reaction was incubated on ice for 15 min. […] After shaking for 5 min the reaction was further incubated for 1 hour at room temperature and this was kept at 4° C. and read on ARTEMIS reader as per the kit instructions (Thermo). […] The activity was calculated as percent of control reaction. IC50 values were calculated from dose response curve by nonlinear regression analysis using GraphPad Prism software.

SMILES strings stand for the structures. Counter-ions that a name gives are not always drawn. Like-named read-outs stand apart in the source and are kept apart here.

Chain of MAP4K-1 enzyme (Q92918 whole entry): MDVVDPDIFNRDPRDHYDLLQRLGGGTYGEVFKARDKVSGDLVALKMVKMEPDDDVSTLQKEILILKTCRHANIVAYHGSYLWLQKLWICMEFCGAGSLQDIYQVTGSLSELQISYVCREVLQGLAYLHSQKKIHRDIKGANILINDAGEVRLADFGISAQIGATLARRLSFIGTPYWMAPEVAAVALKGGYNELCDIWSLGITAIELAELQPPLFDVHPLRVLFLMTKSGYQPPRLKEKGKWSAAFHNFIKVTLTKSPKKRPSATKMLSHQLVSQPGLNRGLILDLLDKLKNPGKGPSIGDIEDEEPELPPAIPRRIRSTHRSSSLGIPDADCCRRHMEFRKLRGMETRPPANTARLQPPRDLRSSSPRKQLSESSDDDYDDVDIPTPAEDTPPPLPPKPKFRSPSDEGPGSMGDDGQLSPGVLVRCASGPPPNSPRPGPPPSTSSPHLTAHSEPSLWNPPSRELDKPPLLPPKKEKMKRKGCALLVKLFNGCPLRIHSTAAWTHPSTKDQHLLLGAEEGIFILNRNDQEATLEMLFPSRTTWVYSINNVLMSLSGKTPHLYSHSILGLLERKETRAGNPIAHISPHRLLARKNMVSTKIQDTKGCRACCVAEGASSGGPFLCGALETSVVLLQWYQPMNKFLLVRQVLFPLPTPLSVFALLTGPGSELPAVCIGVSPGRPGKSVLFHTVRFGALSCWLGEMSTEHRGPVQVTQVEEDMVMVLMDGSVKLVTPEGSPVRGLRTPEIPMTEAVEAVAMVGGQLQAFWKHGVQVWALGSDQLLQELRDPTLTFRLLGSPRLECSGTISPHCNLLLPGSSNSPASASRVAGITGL

What is called inhibition is the share of the control response that was lost under treatment. The low end stands for a weak effect, the high end for a strong effect. A word on the IC50: it is the concentration that inhibits the measured activity by half. Molecule `COc1cc2c(cc1Nc1ncc(Cl)c(Nc3cc(OS(=O)(=O)F)ccc3P(C)(C)=O)n1)C(C)N(C)CC2` (single isomer, unassigned; isomer 1) [Example 31, 3-((5-Chloro-2-((6-methoxy-1,2-dimethyl-1,2,3,4-tetrahydroisoquinolin-7-yl)amino)pyrimidin-4-yl)amino)-4-(dimethylphosphoryl)phenyl sulfofluoridate dihydrochloride (Isomer 1)] yielded an inhibition at 1 µM of 84.4% and an inhibition at 10 µM of 89%. Also, the IC50 (IC50 (nM)) is below 50 nM.

For `Cl.Cl.[2H]C([2H])([2H])Oc1cc2c(cc1Nc1ncc(Cl)c(Nc3ccc(OS(=O)(=O)F)cc3P(C)(C)=O)n1)CN(C)CC2` [Example 5, 4-((5-Chloro-2-((6-(methoxy-d3)-2-methyl-1,2,3,4-tetrahydroisoquinolin-7-yl)amino)pyrimidin-4-yl)amino)-3-(dimethylphosphoryl)phenyl sulfurofluoridate dihydrochloride], the inhibition at 1 µM came out at 78.1% and the inhibition at 10 µM worked out at 82.5%. Where the note is “IC50 (nM)”, the IC50 is below 50 nM.

For `COc1cc2c(cc1Nc1ncc(Cl)c(Nc3ccc(OS(=O)(=O)F)cc3P(C)(C)=O)n1)C(C)N(C)CC2` (single isomer, unassigned; isomer 1) [Example 29, 4-((5-Chloro-2-((6-methoxy-1,2-dimethyl-1,2,3,4-tetrahydroisoquinolin-7-yl)amino)pyrimidin-4-yl)amino)-3-(dimethylphosphoryl)phenyl sulfofluoridate dihydrochloride (Isomer 1)], testing at 1 µM gave an inhibition of 76.5% and testing at 10 µM gave an inhibition of 76.9%. For the setting “IC50 (nM)”, this molecule had an IC50 below 50 nM.

With `COc1cc2c(cc1Nc1ncc(Cl)c(Nc3ccc(O)cc3P(C)(C)=O)n1)CN(C)CC2` [Example 1, (2-((5-Chloro-2-((6-methoxy-2-methyl-1,2,3,4-tetrahydroisoquinolin-7-yl)amino)pyrimidin-4-yl)amino)-5-hydroxyphenyl)dimethylphosphineoxide dihydrochloride], testing at 1 µM gave an inhibition of 87.2% and testing at 10 µM gave an inhibition of 86.5%. Further, the IC50 (read-out: IC50) was below 50 nM.

`CP(C)(=O)c1cc(OS(=O)(=O)F)ccc1Nc1nc(Nc2cc3n(n2)CCNC3)ncc1Cl` [Example 42, 4-((5-Chloro-2-((4,5,6,7-tetrahydropyrazolo[1,5-a]pyrazin-2-yl)amino)pyrimidin-4-yl)amino)-3-(dimethylphosphoryl)phenyl sulfofluoridate dihydrochloride] returned an inhibition at 1 µM of 84% and an inhibition at 10 µM of 83%. Besides, the IC50 (IC50 (nM)) was below 50 nM.

`COc1cc2c(cc1Nc1ncc(C(N)=O)c(Nc3ccc(OS(=O)(=O)F)cc3P(C)(C)=O)n1)CN(C)CC2` [Example 3, 4-((5-Carbamoyl-2-((6-methoxy-2-methyl-1,2,3,4-tetrahydroisoquinolin-7-yl)amino)pyrimidin-4-yl)amino)-3-(dimethylphosphoryl)phenyl sulfurofluoridate dihydrochloride] had an inhibition at 1 µM of 85.6% and an inhibition at 10 µM of 91.2%. For the setting “IC50 (nM)”, this molecule came in with an IC50 below 50 nM.

`COc1cc2c(cc1Nc1ncc(Cl)c(Nc3cc(OS(=O)(=O)F)ccc3P(C)(C)=O)n1)CN(C)CC2` [Example 18, 3-((5-Chloro-2-((6-methoxy-2-methyl-1,2,3,4-tetrahydroisoquinolin-7-yl)amino)pyrimidin-4-yl)amino)-4-(dimethylphosphoryl)phenyl sulfurofluoridate dihydrochloride] had an inhibition at 1 µM of 87.3% and an inhibition at 10 µM of 83.2%. This molecule also showed an IC50 (IC50 (nM)) below 50 nM.

Consider `COc1cc2c(cc1Nc1ncc(Cl)c(Nc3cc(OS(=O)(=O)F)ccc3P(C)(C)=O)n1)CN(C)C(C)C2` (single isomer, unassigned; isomer 1) [Example 35, 3-((5-Chloro-2-((6-methoxy-2,3-dimethyl-1,2,3,4-tetrahydroisoquinolin-7-yl)amino)pyrimidin-4-yl)amino)-4-(dimethylphosphoryl)phenyl sulfofluoridate dihydrochloride (Isomer 1)], for which the inhibition at 1 µM is 83% and 10 µM produced 79.1% inhibition. For the setting “IC50 (nM)”, this molecule registered an IC50 below 50 nM.

In turn, `COc1cc2c(cc1Nc1ncc(Cl)c(Nc3ccc(OS(=O)(=O)F)cc3P(C)(C)=O)n1)CNCC2` [Example 38, 4-((5-Chloro-2-((6-methoxy-1,2,3,4-tetrahydroisoquinolin-7-yl)amino)pyrimidin-4-yl)amino)-3-(dimethylphosphoryl)phenylsulfofluoridate dihydrochloride] came in with an inhibition at 1 µM of 84.5% and an inhibition at 10 µM of 85.7%. For the same molecule, the IC50 (IC50 (nM)) was below 50 nM.

Regarding `COc1cc2c(cc1Nc1ncc(Cl)c(Nc3ccc(N(C)S(=O)(=O)F)cc3P(C)(C)=O)n1)CN(C)CC2` [Example 43, 4-((5-Chloro-2-((6-methoxy-2-methyl-1,2,3,4-tetrahydroisoquinolin-7-yl)amino)pyrimidin-4-yl)amino)-3-(dimethylphosphoryl)phenyl)(methyl)sulfamoylfluoride dihydrochloride], testing at 1 µM gave an inhibition of 80% and the inhibition at 10 µM worked out at 80.5%. The IC50 (IC50 (nM)) was below 50 nM.

In turn, `COc1cc2c(cc1Nc1ncc(Cl)c(Nc3ccc(C(F)F)cc3P(C)(C)=O)n1)CN(C)CC2` [Example 54, (2-((5-Chloro-2-((6-methoxy-2-methyl-1,2,3,4-tetrahydroisoquinolin-7-yl)amino)pyrimidin-4-yl)amino)-5-(difluoromethyl)phenyl)dimethylphosphine oxide] showed an inhibition at 1 µM of 93.4% and an inhibition at 10 µM of 93.7%. In addition, where the note is “read-out: IC50”, the IC50 was below 50 nM.

Consider `COc1cc2c(cc1Nc1ncc(Cl)c(Nc3ccc(OS(=O)(=O)F)cc3P(C)(C)=O)n1)COCC2` [Example 28, 4-((5-Chloro-2-((6-methoxyisochroman-7-yl)amino)pyrimidin-4-yl)amino)-3-(dimethylphosphoryl)phenyl sulfofluoridate hydrochloride], for which the inhibition at 1 µM amounted to 69.7% and the inhibition at 10 µM was found to be 75.9%. The IC50 (IC50 (nM)) was below 50 nM.

Consider `COc1cc2c(cc1Nc1ncc(Cl)c(Nc3ccc(OS(=O)(=O)F)cc3P(C)(C)=O)n1)C(C)(C)N(C)CC2` [Example 11, 4-((5-Chloro-2-((6-methoxy-1,1,2-trimethyl-1,2,3,4-tetrahydroisoquinolin-7-yl)amino)pyrimidin-4-yl)amino)-3-(dimethylphosphoryl)phenyl sulfurofluoridate dihydrochloride], for which 1 µM produced 75.1% inhibition and the inhibition at 10 µM is 87.2%. The IC50 (IC50 (nM)) was below 50 nM.

Turning to `COc1cc2c(cc1Nc1ncc(Cl)c(Nc3ccc(OS(=O)(=O)F)cc3P(C)(C)=O)n1)CN(C)C(C)C2` (single isomer, unassigned; isomer 1) [Example 33, 4-((5-Chloro-2-((6-methoxy-2,3-dimethyl-1,2,3,4-tetrahydroisoquinolin-7-yl)amino)pyrimidin-4-yl)amino)-3-(dimethylphosphoryl)phenyl sulfofluoridate dihydrochloride (Isomer 1)], 1 µM produced 92.8% inhibition and at 10 µM the inhibition was 87.8%. The molecule also gave a half-maximal inhibitory concentration (IC50) (IC50 (nM)) below 50 nM.

Molecule `COc1cc2c(cc1Nc1ncc(Cl)c(Nc3ccc(OC(F)(F)F)cc3P(C)(C)=O)n1)CN(C)CC2` [Example 47] returned an inhibition at 1 µM of 91.4% and an inhibition at 10 µM of 88%. The half-inhibitory concentration (IC50) (read-out: IC50) is below 50 nM.

These data come from patent US12577267B2, “Pyrimidine compounds for use as MAP4K1 inhibitors” (GLENMARK SPECIALITY S.A., priority 2021, dated 2026).
